The record followed here is patent US12691182B2, “Maytansinoid derivatives, conjugates thereof, and methods of use” (priority 2016, dated 2026).

What all share (type): cell-based
One assay has as its system Ovcar3 (Muc16+) cells. Nature of the assay: In vitro cytotoxicity assay, Ovcar3 cells (CCK8 viability). The following applies: naked payload, 3 days; for Ovcar3 % kill: % kill reported for the highest dose; for IC50: CCK8. The method, then:
(§1) In this Example, the ability of various antibody-drug conjugates and naked payloads to kill antigen-expressing tumor cells in vitro was assessed.
(§2) Ovcar3 (Muc16+) cells were seeded in 96 well plates at 3000 cells per well in complete growth media and grown overnight. For cell viability curves, serially diluted conjugates or naked payloads were added to the cells at final concentrations ranging from 100 nM to 5 pM and incubated for 3 days. To measure viability, cells were incubated with CCK8 (Dojindo) for the final 2 hours and the absorbance at 450 nm (OD450) was determined on a Victor (Perkin Elmer). Background OD450 levels determined from digitonin (40 nM) treated cells were subtracted from all wells and viability is expressed as a percentage of the untreated controls. IC50 values were determined from a four-parameter logistic equation over a 10-point response curve (GraphPad Prism). […] All curves and IC50 values are corrected for payload equivalents. The plot of % Cell Viability vs. Log 10 [M]
(§3) All IC50s are expressed in nM concentration and % kill is reported for the highest dose. All curves and IC50 values are corrected for payload equivalents. The plot of % Cell Viability vs. Log 10 [M]

The next assay has as its system SKBR3 (Her2+) cells. Nature of the assay: In vitro cytotoxicity assay, SKBR3 cells (CCK8 viability). The following applies: naked payload, SKBr-3 cells, 3 days; for SKBr-3 % kill: % kill reported for the highest dose; for IC50: CCK8. The method, then: as §1
as §2, with “SKBR3 (Her2+)” for “Ovcar3 (Muc16+)”, “8000” for “3000”
as §3

The next assay deals with C4-2 (STEAP2+) cells. Nature of the assay: In vitro cytotoxicity assay, C4-2 cells (CellTiter-Glo viability). Particulars: naked payload, 5 days; for C4-2 % kill: % kill reported for the highest dose; for IC50: CellTiter-Glo. The method, then: as §1
C4-2 (STEAP2+) cells were seeded in 96 well plates at 4000 cells per well in complete growth media and grown overnight. For cell viability curves, serially diluted conjugates or naked payloads were added to the cells at final concentrations ranging from 100 nM to 5 pM and incubated for 5 days. To measure viability, cells were incubated with CellTiter-Glo reagents for 5 minutes and luminescence was determined on a Victor plate reader (PerkinElmer). IC50 values were determined from a four-parameter logistic equation over a 10-point response curve (GraphPad Prism).
as §3
Background: ATP-based viability assays read luminescence as a measure of living cells.

The IC50 is the concentration that gives 50% inhibition. Low values mean inhibition by little substance, high ones a need for much substance. Take `COc1cc2cc(c1Cl)N(C)C(=O)CC(OC(=O)Nc1ccc(N)cc1)C1(C)OC1C(C)C1CC(O)(NC(=O)O1)C(OC)C=CC=C(C)C2` (stereo not shown) [Compound 8, Maytan-3-O-carbamoyl-N-(4-aminobenzene)]: in the assay with Ovcar3 (Muc16+) cells, the Ovcar3 % kill entry was “** (** indicates % kill greater than, or equal to, 85 and less than 90)”; the IC50 lay within 1 to 10 nM. Besides, in the assay on SKBR3 (Her2+) cells, the SKBr-3 % kill result is “**** (**** indicates % kill greater than, or equal to, 95 and less than 99)”; the IC50 lay in the range of 1 to 10 nM. In addition, in the assay on C4-2 (STEAP2+) cells, the C4-2 % kill result was “**** (**** indicates % kill greater than, or equal to, 95 and less than 99)”; the IC50 was at least 10 nM.
In the case of `COc1cc2cc(c1Cl)N(C)C(=O)CC(OC(=O)Nc1ccc(N)cc1Cl)C1(C)OC1C(C)C1CC(O)(NC(=O)O1)C(OC)C=CC=C(C)C2` (stereo not shown) [Compound 17, Maytan-3-O-carbamoyl-N-(2-chloro-4-amino)benzene], in the assay with Ovcar3 (Muc16+) cells, the Ovcar3 % kill result is “*** (*** indicates % kill greater than, or equal to, 90 and less than 95)”; the IC50 is 0.001 to 0.01 nM. In the assay on SKBR3 (Her2+) cells, the SKBr-3 % kill result is on record as “***** (***** indicates % kill greater than, or equal to, 99)” and the IC50 fell in the range of 0.01 to 0.1 nM. Moreover, in the assay with C4-2 (STEAP2+) cells, the C4-2 % kill entry was “**** (**** indicates % kill greater than, or equal to, 95 and less than 99)”; the IC50 is 0.1 to 1 nM.
As to `COc1cc2cc(c1Cl)N(C)C(=O)CC(OC(=O)Nc1ccc(N)c(Cl)c1)C1(C)OC1C(C)C1CC(O)(NC(=O)O1)C(OC)C=CC=C(C)C2` (stereo not shown) [Compound 30a, Maytan-3-O-carbamoyl-N-(3-chloro-4-amino)benzene], in the assay with Ovcar3 (Muc16+) cells, the Ovcar3 % kill result is “*** (*** indicates % kill greater than, or equal to, 90 and less than 95)”; the IC50 lay within 0.1 to 1 nM. In addition, in the assay with SKBR3 (Her2+) cells, the SKBr-3 % kill entry was “**** (**** indicates % kill greater than, or equal to, 95 and less than 99)”; the IC50 lay in the range of 0.1 to 1 nM. Moreover, in the assay with C4-2 (STEAP2+) cells, the C4-2 % kill entry was “***** (***** indicates % kill greater than, or equal to, 99)” and the IC50 fell in the range of 1 to 10 nM.
Consider `COc1cc2cc(c1Cl)N(C)C(=O)CC(OC(=O)Nc1ccc(Cl)cc1N)C1(C)OC1C(C)C1CC(O)(NC(=O)O1)C(OC)C=CC=C(C)C2` (stereo not shown) [Compound 30b, Maytan-3-O-carbamoyl-N-(4-chloro-2-amino)benzene], for which, in the assay with SKBR3 (Her2+) cells, the SKBr-3 % kill result was “**** (**** indicates % kill greater than, or equal to, 95 and less than 99)”; the 50% inhibitory concentration (IC50) is 0.1 to 1 nM. Also, in the assay with C4-2 (STEAP2+) cells, the C4-2 % kill result is “* (* indicates % kill less than 85)” and the IC50 is at least 10 nM.
Consider `COc1cc2cc(c1Cl)N(C)C(=O)C[C@H](OC(=O)Nc1ccc(N)cc1C)[C@]1(C)O[C@H]1[C@H](C)[C@@H]1C[C@@](O)(NC(=O)O1)[C@H](OC)/C=C/C=C(\C)C2` [Compound 30c, Maytan-3-O-carbamoyl-N-(2-methyl-4-amino)benzene], for which, in the assay on Ovcar3 (Muc16+) cells, the Ovcar3 % kill entry is “** (** indicates % kill greater than, or equal to, 85 and less than 90)”; the IC50 was 1 to 10 nM. For the same molecule, in the assay on SKBR3 (Her2+) cells, the SKBr-3 % kill result was “*** (*** indicates % kill greater than, or equal to, 90 and less than 95)”; the IC50 fell in the range of 1 to 10 nM. In addition, in the assay with C4-2 (STEAP2+) cells, the C4-2 % kill entry was “** (** indicates % kill greater than, or equal to, 85 and less than 90)”; the IC50 is at least 10 nM.
For `COc1cc2cc(c1Cl)N(C)C(=O)CC(OC(=O)Nc1c(C)cccc1N)C1(C)OC1C(C)C1CC(O)(NC(=O)O1)C(OC)C=CC=C(C)C2` (stereo not shown) [Compound 30f, Maytan-3-O-carbamoyl-N-(6-methyl-2-amino)benzene], in the assay with SKBR3 (Her2+) cells, the SKBr-3 % kill result is “***** (***** indicates % kill greater than, or equal to, 99)” and the IC50 lay in the range of 0.1 to 1 nM. In the assay on C4-2 (STEAP2+) cells, the C4-2 % kill result was “**** (**** indicates % kill greater than, or equal to, 95 and less than 99)”; the IC50 was in the range of 1 to 10 nM.
`COc1cc2cc(c1Cl)N(C)C(=O)C[C@H](OC(=O)Nc1ccc(F)cc1N)[C@]1(C)O[C@H]1[C@H](C)[C@@H]1C[C@@](O)(NC(=O)O1)[C@H](OC)/C=C/C=C(\C)C2` [Compound 30g, Maytan-3-O-carbamoyl-N-(4-fluoro-2-amino)benzene]: in the assay with SKBR3 (Her2+) cells, the SKBr-3 % kill result was “***** (***** indicates % kill greater than, or equal to, 99)” and the IC50 was in the range of 0.1 to 1 nM. Besides, in the assay with C4-2 (STEAP2+) cells, the C4-2 % kill result is listed as “***** (***** indicates % kill greater than, or equal to, 99)” and the IC50 fell in the range of 1 to 10 nM.
On to `COc1cc2cc(c1Cl)N(C)C(=O)C[C@H](OC(=O)Nc1cc(N)ccc1F)[C@]1(C)O[C@H]1[C@H](C)[C@@H]1C[C@@](O)(NC(=O)O1)[C@H](OC)/C=C/C=C(\C)C2` [Compound 30h, Maytan-3-O-carbamoyl-N-(2-fluoro-5-amino)benzene], for which, in the assay on SKBR3 (Her2+) cells, the SKBr-3 % kill result was “**** (**** indicates % kill greater than, or equal to, 95 and less than 99)”; the half-maximal inhibitory concentration (IC50) lay within 0.1 to 1 nM. In addition, in the assay on C4-2 (STEAP2+) cells, the C4-2 % kill result is “* (* indicates % kill less than 85)” and the IC50 was 1 to 10 nM.
Regarding `COc1ccc(NC(=O)O[C@H]2CC(=O)N(C)c3cc(cc(OC)c3Cl)C/C(C)=C/C=C/[C@@H](OC)[C@@]3(O)C[C@H](OC(=O)N3)[C@@H](C)[C@@H]3O[C@@]23C)c(N)c1` [Compound 30i, Maytan-3-O-carbamoyl-N-(4-methoxy-2-amino)benzene], in the assay on SKBR3 (Her2+) cells, the SKBr-3 % kill entry is “***** (***** indicates % kill greater than, or equal to, 99)” and the half-maximal inhibitory concentration (IC50) lay in the range of 1 to 10 nM. In the assay with C4-2 (STEAP2+) cells, the C4-2 % kill result is reported as “***** (***** indicates % kill greater than, or equal to, 99)” and the IC50 is at least 10 nM.
Consider `COc1cc2cc(c1Cl)N(C)C(=O)CC(OC(=O)Nc1cc(Cl)c(F)cc1N)C1(C)OC1C(C)C1CC(O)(NC(=O)O1)C(OC)C=CC=C(C)C2` (stereo not shown) [Compound 30o, Maytan-3-O-carbamoyl-N-(4-fluoro-5-chloro-2-amino)benzene], for which, in the assay on SKBR3 (Her2+) cells, the SKBr-3 % kill result is “***** (***** indicates % kill greater than, or equal to, 99)” and the IC50 lay in the range of 0.1 to 1 nM. In the assay on C4-2 (STEAP2+) cells, the C4-2 % kill result is reported as “* (* indicates % kill less than 85)” and the IC50 was at least 10 nM.
As to `COc1cc2cc(c1Cl)N(C)C(=O)C[C@H](OC(=O)Nc1cc(N3CCOCC3)c(N)cc1C)[C@]1(C)O[C@H]1[C@H](C)[C@@H]1C[C@@](O)(NC(=O)O1)[C@H](OC)/C=C/C=C(\C)C2` [Compound 30p, Maytan-3-O-carbamoyl-N-(4-amino-2-methyl-5-morpholin-4-yl)benzene], in the assay with SKBR3 (Her2+) cells, the SKBr-3 % kill result was “* (* indicates % kill less than 85)”. Also, the IC50 in the assay with SKBR3 (Her2+) cells and with C4-2 (STEAP2+) cells was at least 10 nM in each case.
As for `COc1cc2cc(c1Cl)N(C)C(=O)C[C@H](OC(=O)Nc1cc(N3CCCC3)c(N)cc1C)[C@]1(C)O[C@H]1[C@H](C)[C@@H]1C[C@@](O)(NC(=O)O1)[C@H](OC)/C=C/C=C(\C)C2` [Compound 30q, Maytan-3-O-carbamoyl-N-(4-amino-2-methyl-5-pyrrolidin-1-yl)benzene], in the assay on SKBR3 (Her2+) cells, the SKBr-3 % kill result was “***** (***** indicates % kill greater than, or equal to, 99)” and the IC50 was 1 to 10 nM. Moreover, in the assay with C4-2 (STEAP2+) cells, the C4-2 % kill entry was “*** (*** indicates % kill greater than, or equal to, 90 and less than 95)”; the IC50 is at least 10 nM.
“Maytan-3-O-carbamoyl-N-(2-methyl-3-amino)benzene [Compound 30d]”: in the assay with SKBR3 (Her2+) cells, the SKBr-3 % kill entry is “**** (**** indicates % kill greater than, or equal to, 95 and less than 99)”; the IC50 is 1 to 10 nM. Besides, in the assay with C4-2 (STEAP2+) cells, the C4-2 % kill result is “**** (**** indicates % kill greater than, or equal to, 95 and less than 99)”; the IC50 fell in the range of 1 to 10 nM.
Turning to “Maytan-3-O-carbamoyl-N-(4-trifluoromethoxy-2-amino)benzene [Compound 30n]”, in the assay on SKBR3 (Her2+) cells, the SKBr-3 % kill result was “***** (***** indicates % kill greater than, or equal to, 99)” and the IC50 was 1 to 10 nM. Moreover, in the assay with C4-2 (STEAP2+) cells, the C4-2 % kill result is reported as “***** (***** indicates % kill greater than, or equal to, 99)” and the IC50 is at least 10 nM.
For the molecule “Maytan-3-O-carbamoyl-N-(6-methyl-3-amino)benzene [Compound 30e]”, in the assay with SKBR3 (Her2+) cells, the SKBr-3 % kill result is “*** (*** indicates % kill greater than, or equal to, 90 and less than 95)”; the IC50 fell in the range of 1 to 10 nM. Besides, in the assay with C4-2 (STEAP2+) cells, the C4-2 % kill entry was “**** (**** indicates % kill greater than, or equal to, 95 and less than 99)”; the IC50 is 1 to 10 nM.
